Results published in the supplement of paper PMC10307832.

Legend:
Assay in all cases: relative viability (nuclei count vs DMSO), 5 days (fraction); higher = more cells survive
COR-L 105 = system: COR-L 105
In short: (§1)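 Lung cancer cell lines, seeded in 1536-well plates, were treated the following day by pin tool with a single drug or with five library-drug doses (not always all listed) in √10 steps on top of a fixed anchor-drug dose. Cells were fixed and nuclei stained in one step after 5 days, and nuclei were counted. Relative viability is the nuclei count for treated wells divided by that for vehicle wells, reported as medians of duplicate plates.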

COR-L23 = system: COR-L23
In short: as §1

EPLC-272H = system: EPLC-272H
In short: as §1

HARA = system: HARA
In short: as §1

HCC-15 = system: HCC-15
In short: as §1

HCC-366 = system: HCC-366
In short: as §1

HCC-78 = system: HCC-78
In short: as §1

HCC-827 = system: HCC-827
In short: as §1

LCLC-103H = system: LCLC-103H
In short: as §1

NCI-H1395 = system: NCI-H1395
In short: as §1

NCI-H1437 = system: NCI-H1437
In short: as §1

NCI-H1792 = system: NCI-H1792
In short: as §1

NCI-H1944 = system: NCI-H1944
In short: as §1

NCI-H1975 = system: NCI-H1975
In short: as §1

NCI-H2023 = system: NCI-H2023
In short: as §1

NCI-H2085 = system: NCI-H2085
In short: as §1

NCI-H2405 = system: NCI-H2405
In short: as §1

NCI-H358 = system: NCI-H358
In short: as §1

NCI-H661 = system: NCI-H661
In short: as §1

NCI-H727 = system: NCI-H727
In short: as §1

SK-LU-1 = system: SK-LU-1
In short: as §1

UMC-11 = system: UMC-11
In short: as §1

In the case of `O=C(O)CCCCC(CCSCc1ccccc1)SCc1ccccc1` (configuration not stated) [CPI-613] + Cc1nc(Nc2ncc(C(=O)Nc3c(C)cccc3Cl)s2)cc(N2CCN(CCO)CC2)n1 [Dasatinib] (partner 0.075 µM), the relative viability (COR-L 105; first compound 5 µM) is reported as 0.386, the relative viability (COR-L 105; first compound 15.81 µM) is reported as 0.285 and the relative viability (COR-L 105; first compound 50 µM) is reported as 0.307. For the same compound, the relative viability (COR-L 105; first compound 158.11 µM) was 0.278, the relative viability (COR-L 105; first compound 500 µM) was 0.131 and the relative viability (COR-L23; first compound 5 µM) was 0.568. The relative viability (COR-L23; first compound 15.81 µM) was 0.493, the relative viability (COR-L23; first compound 50 µM) was 0.485 and the relative viability (COR-L23; first compound 158.11 µM) was 0.334. It also gave a relative viability (COR-L23; first compound 500 µM) of 0.0383, a relative viability (EPLC-272H; first compound 5 µM) of 0.317 and a relative viability (EPLC-272H; first compound 15.81 µM) of 0.334. The relative viability (EPLC-272H; first compound 50 µM) was 0.449, the relative viability (EPLC-272H; first compound 158.11 µM) was 0.219 and the relative viability (EPLC-272H; first compound 500 µM) was 0.0109. It also gave a relative viability (HARA; first compound 15.81 µM) of 0.23, a relative viability (HARA; first compound 50 µM) of 0.309 and a relative viability (HARA; first compound 158.11 µM) of 0.149. For the same compound, the relative viability (HARA; first compound 500 µM) was 0.0196, the relative viability (HCC-15; first compound 5 µM) was 0.56 and the relative viability (HCC-15; first compound 15.81 µM) was 0.529. For the same compound, the relative viability (HCC-15; first compound 50 µM) was 0.552, the relative viability (HCC-15; first compound 158.11 µM) was 0.308 and the relative viability (HCC-15; first compound 500 µM) was 0.0395. The relative viability (HCC-366; first compound 5 µM) was 0.604, the relative viability (HCC-366; first compound 15.81 µM) was 0.606 and the relative viability (HCC-366; first compound 50 µM) was 0.798. The relative viability (HCC-366; first compound 158.11 µM) was 0.309, the relative viability (HCC-366; first compound 500 µM) was 0.0101 and the relative viability (HCC-78; first compound 5 µM) was 0.358. It also gave a relative viability (HCC-78; first compound 15.81 µM) of 0.272, a relative viability (HCC-78; first compound 50 µM) of 0.408 and a relative viability (HCC-78; first compound 158.11 µM) of 0.339. It also gave a relative viability (HCC-78; first compound 500 µM) of 0.342, a relative viability (HCC-827; first compound 5 µM) of 0.262 and a relative viability (HCC-827; first compound 15.81 µM) of 0.295. It also gave a relative viability (HCC-827; first compound 50 µM) of 0.405, a relative viability (HCC-827; first compound 158.11 µM) of 0.315 and a relative viability (HCC-827; first compound 500 µM) of 0.353. It also gave a relative viability (LCLC-103H; first compound 5 µM) of 0.463, a relative viability (LCLC-103H; first compound 15.81 µM) of 0.472 and a relative viability (LCLC-103H; first compound 50 µM) of 0.41. The relative viability (LCLC-103H; first compound 158.11 µM) was 0.422, the relative viability (LCLC-103H; first compound 500 µM) was 0.271 and the relative viability (NCI-H1395; first compound 5 µM) was 0.397. The relative viability (NCI-H1395; first compound 15.81 µM) was 0.352, the relative viability (NCI-H1395; first compound 50 µM) was 0.414 and the relative viability (NCI-H1395; first compound 158.11 µM) was 0.409. For the same compound, the relative viability (NCI-H1395; first compound 500 µM) was 0.358, the relative viability (NCI-H1437; first compound 5 µM) was 0.388 and the relative viability (NCI-H1437; first compound 15.81 µM) was 0.314. It also gave a relative viability (NCI-H1437; first compound 50 µM) of 0.381, a relative viability (NCI-H1437; first compound 500 µM) of 0.304 and a relative viability (NCI-H1792; first compound 5 µM) of 0.772. For the same compound, the relative viability (NCI-H1792; first compound 15.81 µM) was 0.748, the relative viability (NCI-H1792; first compound 50 µM) was 0.789 and the relative viability (NCI-H1792; first compound 158.11 µM) was 0.669. It also gave a relative viability (NCI-H1792; first compound 500 µM) of 0.766, a relative viability (NCI-H1944; first compound 5 µM) of 0.212 and a relative viability (NCI-H1944; first compound 15.81 µM) of 0.219. It also gave a relative viability (NCI-H1944; first compound 50 µM) of 0.188, a relative viability (NCI-H1944; first compound 158.11 µM) of 0.19 and a relative viability (NCI-H1944; first compound 500 µM) of 0.0792. It also gave a relative viability (NCI-H1975; first compound 5 µM) of 0.377, a relative viability (NCI-H1975; first compound 15.81 µM) of 0.331 and a relative viability (NCI-H1975; first compound 50 µM) of 0.347. The relative viability (NCI-H1975; first compound 158.11 µM) was 0.176, the relative viability (NCI-H1975; first compound 500 µM) was 0.111 and the relative viability (NCI-H2023; first compound 5 µM) was 0.552. For the same compound, the relative viability (NCI-H2023; first compound 15.81 µM) was 0.457, the relative viability (NCI-H2023; first compound 50 µM) was 0.483 and the relative viability (NCI-H2023; first compound 158.11 µM) was 0.0687. For the same compound, the relative viability (NCI-H2023; first compound 500 µM) was 0.0087, the relative viability (NCI-H2085; first compound 5 µM) was 0.267 and the relative viability (NCI-H2085; first compound 15.81 µM) was 0.266. For the same compound, the relative viability (NCI-H2085; first compound 50 µM) was 0.255, the relative viability (NCI-H2085; first compound 158.11 µM) was 0.242 and the relative viability (NCI-H2085; first compound 500 µM) was 0.257. It also gave a relative viability (NCI-H2405; first compound 5 µM) of 0.205, a relative viability (NCI-H2405; first compound 15.81 µM) of 0.176 and a relative viability (NCI-H2405; first compound 50 µM) of 0.203. It also gave a relative viability (NCI-H2405; first compound 158.11 µM) of 0.201, a relative viability (NCI-H2405; first compound 500 µM) of 0.209 and a relative viability (NCI-H358; first compound 15.81 µM) of 0.145. The relative viability (NCI-H358; first compound 50 µM) was 0.146, the relative viability (NCI-H358; first compound 158.11 µM) was 0.157 and the relative viability (NCI-H358; first compound 500 µM) was 0.0248. It also gave a relative viability (NCI-H661; first compound 5 µM) of 0.863, a relative viability (NCI-H661; first compound 15.81 µM) of 0.83 and a relative viability (NCI-H661; first compound 50 µM) of 0.798. It also gave a relative viability (NCI-H661; first compound 158.11 µM) of 0.312, a relative viability (NCI-H661; first compound 500 µM) of 0.155 and a relative viability (NCI-H727; first compound 5 µM) of 0.305. It also gave a relative viability (NCI-H727; first compound 15.81 µM) of 0.35, a relative viability (NCI-H727; first compound 50 µM) of 0.329 and a relative viability (NCI-H727; first compound 158.11 µM) of 0.275. The relative viability (NCI-H727; first compound 500 µM) was 0.138, the relative viability (SK-LU-1; first compound 5 µM) was 0.176 and the relative viability (SK-LU-1; first compound 15.81 µM) was 0.18. The relative viability (SK-LU-1; first compound 50 µM) was 0.187, the relative viability (SK-LU-1; first compound 158.11 µM) was 0.151 and the relative viability (SK-LU-1; first compound 500 µM) was 0.0997. It also gave a relative viability (UMC-11; first compound 5 µM) of 0.444, a relative viability (UMC-11; first compound 15.81 µM) of 0.417 and a relative viability (UMC-11; first compound 50 µM) of 0.482. For the same compound, the relative viability (UMC-11; first compound 158.11 µM) was 0.144 and the relative viability (UMC-11; first compound 500 µM) was 0.0883.
